Patent US8609897B2, “Trifluoromethylsulfonamide gamma secretase inhibitor” (Merck Sharp & Dohme Corp., priority 2009, dated 2013)
Where two headings read alike, the source gives them in different places.

What was measured:
[1] = biological target: semi-purified γ-secretase; assay: In vitro APP processing (C100Flag substrate, semi-purified γ-secretase, MESO Scale ELISA), mouse brain membranes; type: biochemical; conditions: in vitro assay
Method: (§1) In Vitro APP Processing (Assay Quatitates Aβ Analytes Generated from a Recombinant APPC100Flag Substrate Incubated with Semi-Purified γ-Secretase)
(§2) The effect of compounds on the abundance of Aβ40 and Aβ42 peptides generated from exogenous C100Flag substrate by semi-purified γ-secretase was determined by MESO Scale ELISA. Generation of signal in this MESO Scale assay requires an anti-amyloid monoclonal antibody (clone 408) conjugated with streptavidin to bind to a biotin-coated plate. Specific [Ru(bpy)3]2+-labeled monoclonal antibodies for either Aβ40 (G210) or Aβ42 (12F4) subsequently generate an electrochemiluminescence signal upon electrochemical stimulation. The assay was accomplished by incubating compound, C100Flag substrate and CHAPSO-solubilized P2 membranes from HeLa cells or brains of mouse, rat, or dog. The reaction was then transferred to two different biotinylated microplates for detection of either Aβ40 or Aβ42.

[2] = biological target: semi-purified γ-secretase; assay: In vitro APP processing (C100Flag substrate, semi-purified γ-secretase, MESO Scale ELISA), rat brain membranes; type: biochemical; conditions: in vitro assay
Method: as §1, §2

[3] = biological target: semi-purified γ-secretase; assay: In vitro APP processing (C100Flag substrate, semi-purified γ-secretase, MESO Scale ELISA), dog brain membranes; type: biochemical; conditions: in vitro assay
Method: as §1, §2

[4] = tested on: γ-secretase (APP processing), SH-SY5Y cells expressing amyloid β protein (SP4CT cells); assay: APP processing, secreted Aβ40 and Aβ42 from SH-SY5Y (SP4CT) cells, AlphaLisa; conditions: cell based assay
Method: APP Processing (Assay Quantitates Secreted Aβ Analytes from Cell Lines):
The effect of compounds on the abundance of Aβ40 and Aβ42 peptides generated from SH-SY5Y cells expressing amyloid β protein (SP4CT cells) was determined by an AlphaLisa™ assay. Analogous to an ELISA assay, generation of signal in this AlphaLisa™ assay requires “donor” and “acceptor” beads to be brought in close proximity by specific antibody recognition of either Aβ40 or Aβ42 peptides. The assay was accomplished by removing media from compound-treated SP4CT cells to two different microplates, followed by the addition of donor beads conjugated with streptavidin binding a biotinylated anti-amyloid β monocolonal antibody (clone 408). Acceptor beads directly conjugated with anti-Aβ40 monoclonal antibody (G210) were added to one microplate and anti-Aβ42 monoclonal antibody (12F4) acceptor beads were added to the other. Abundance of Aβ40 and Aβ42 was directly proportional to the luminescent signal generated following excitation of donor beads by laser light.

[5] = tested on: gamma secretase-dependent cleavage of the Notch protein, HeLa cells; assay: Notch processing, split-luciferase assay in HeLa cells; type: cell-based; conditions: ratio HeLa Notch to SY5Y Aβ40
Source text: (§3) Notch Processing: (Assay Quantitates Notch Intracellular Domain Release in Cell Lines):
(§4) A “split-luciferase” assay is used to measure inhibition of gamma secretase-dependent cleavage of the Notch protein. In this assay, HeLa cells were made to express a Notch protein lacking its extracellular domain (NotchΔE) fused to an N-terminal fragment of luciferase. The same cells also expressed a C-terminal fragment of luciferase fused to the immunoglobulin J kappa recombination signal sequence binding protein (RBP). Upon NotchΔE cleavage by gamma secretase, a Notch intracellular domain (NICD)-N terminal luciferase protein is generated which translocates to the nucleus and binds the RBP-C terminal luciferase fusion, bringing two independently nonfunctional halves of luciferase together to form a functional luciferase enzyme. The activity of luciferase in these cells is directly proportional to the amount of gamma secretase-cleaved Notch. Luciferase activity is determined by the standard techniques of luciferin addition to lysed cells and measurement of total luminescence.

[6] = tested on: T1, gamma secretase-dependent cleavage of the Notch protein, HeLa cells; assay: as above; type: cell-based; conditions: cell based assay, HeLa cells, NotchΔE split-luciferase
T1 construct: HeLa Notch; other: cell based assay, HeLa cells, NotchΔE split-luciferase
Source text: as §3, §4

[7] = Pharmacokinetics in Sprague Dawley rats; type: in vivo; conditions: Rat; for AUC (Norm)(0-x) / clearance / half-life: 0.25 mg/kg; for clearance / half-life / bioavailability: Sprague Dawley, plasma; for clearance: intravenous; for bioavailability: 0.25 mg/kg IV or PO
Method: (§5) Pharmacokinetic parameters were determined in Sprague Dawley rats, Beagle dogs and Rhesus monkeys by dosing the compounds intravenously (IV) or orally (PO). A dose of 0.25 mg/kg was administered either IV or PO to each subject with a dosing solution of 0.25 mg/ml in a 30:70 v/v mixture of PEG400:40% Captisol®. Plasma samples were collected at 5 min. (IV only), 15 min., 30 min., 1 h, 2 h, 4 h, 6 h, 8 h, 24 h, 48 h, 72 h, 96 h, 120 h, 144 h, and 168 h. Samples were analyzed by LC-MS/MS (API5000™) to determine the concentration in plasma. Briefly, 50 μL plasma was precipitated with 200 μL acetonitrile containing an appropriate internal standard. Samples were filtered, 500 μL of water was added to each sample and 10 μL of this was injected on a C18 column (2.0 mm×30 mm, 3 μm particle size) and eluted using a gradient LC method with water containing 0.1% formic acid as the aqueous mobile phase, and acetonitrile containing 0.1% formic acid as the organic phase. Electrospray ionization with multiple reaction monitoring was used for MS/MS detection. Plasma concentration of the compounds was determined using a standard curve that was prepared similar to the samples in the respective matrix. Non-compartmental analysis was performed using Watson 7.2 to generate the PK parameters.

[8] = Pharmacokinetics in Beagle dogs; type: in vivo; conditions: Dog; for clearance / half-life / bioavailability: Beagle, plasma; for clearance: intravenous; for clearance / half-life / AUC (Norm)(0-x): 0.25 mg/kg; for bioavailability: 0.25 mg/kg IV or PO
Method: as §5

[9] = Pharmacokinetics in Rhesus monkeys; type: in vivo; conditions: for AUC (Norm)(0-x) / half-life / clearance: 0.25 mg/kg; for half-life / bioavailability / clearance: rhesus monkey, plasma; for bioavailability: 0.25 mg/kg IV or PO; for clearance: intravenous
Method: as §5

[10] = Example A: PK profile in Rhesus monkeys, 30 mg/kg PO single dose; type: in vivo; conditions: rhesus monkey, plasma
Source text: (§6) Peak lowering of ˜46% was observed 24 hrs after each dose. […] Terminal phase pharmacokinetic characteristics of Example 1 in Rhesus monkey provide continuous inhibition over the course of one week achieving both an average as well as minimum reduction of CSF Aβ40 of >25%.

[11] = tested on: CSF Aβ40; assay: Example A: CSF Aβ40 reduction and tolerability in Rhesus monkeys, 30 mg/kg PO, one week; type: in vivo
Source text: as §6

[12] = tested on: CSF Aβ40 and Aβ42; assay: Example B: CSF Aβ40 and Aβ42 levels and tolerability in rhesus monkeys, once-weekly oral 30 mpk; type: in vivo; conditions: oral once-weekly 30 mpk
Method: Example 1 was administered orally to rhesus monkeys once-weekly at a dose of 30 mpk and levels of Aβ40 and Aβ42 in the cerebrospinal fluid (CSF) were monitored.

[13] = Aβ40, read-out: Tissue autonomous Aβ40, Mouse
[14] = Aβ40, read-out: Tissue autonomous Aβ40, Rat
[15] = Aβ40, read-out: Tissue autonomous Aβ40, Dog

Compound | IC50 [1, 13] [nM] | IC50 [2, 14] [nM] | IC50 [3, 15] [nM] | IC50 ([4]; Aβ40, read-out: SY5Y Aβ40) [nM] | Notch/Aβ40 [5] | IC50 [6] [nM] | AUC (Norm)(0-x) [7] [µM·kg·h/mg] | clearance [7] [mL/min/kg] | half-life [7] [h] | bioavailability [7] [%] | clearance [8] [mL/min/kg] | half-life [8] [h] | bioavailability [8] [%] | AUC (Norm)(0-x) [8] [µM·kg·h/mg] | AUC (Norm)(0-x) [9] [µM·kg·h/mg] | half-life [9] [h] | bioavailability [9] [%] | clearance [9] [mL/min/kg] | IC50 ([4]; Aβ42, read-out: SY5Y Aβ42) [nM] | also measured
O=S(=O)(N[C@H]1CC[C@@](c2cc(F)ccc2C(F)(F)F)(S(=O)(=O)c2ccc(C(F)(F)F)cc2)CC1)C(F)(F)F [Example 1, 1,1,1-trifluoro-N-(4-[5-fluoro-2-(trifluoromethyl)phenyl]-4-{[4-(trifluoromethyl)phenyl]sulfonyl}cyclohexyl)methanesulfonamide] | 2.4 | 1.4 | 1.5 | 1.4 ± 0.9 | 370 | 518 | 8.7 | 3.4 | 126 | 64 | 0.234 | 713 | 84 | 99 | 385 | 228 | 84 | 0.07 |  | AUC(0-t) ([10]; read-out: AUC (0-24)): 138 µM·h; half-life ([10]; read-out: plasma t ½): > 168 h; minimum inhibition (CSF Aβ40) ([11]; 24 hrs (day 1) to 144 hrs (day 6)): > 25%; Peak lowering of CSF Aβ40 ([11]; 24 hrs after each dose): ~46%; average daily CSF Aβ40 reduction relative to baseline ([11]; over a one week period (168 hrs; 7 days)): ~35%; tolerability (unformed stool) ([11]; over the course of the study): no unformed stool or other tolerability issues; GI toxicity ([12]; over a 3 week period): no evidence of GI toxicity; average reduction in CSF Aβ40 levels relative to vehicle-treated controls ([12]; over a 3 week period): approximately 40%; average reduction in CSF Aβ42 levels relative to vehicle-treated controls ([12]; over a 3 week period): approximately 40%; side-effects leading to study termination ([12]; study terminated after 3 weeks): respiratory side-effects unconnected with Notch signaling
O=S(=O)(N[C@H]1CC[C@@](c2cc(F)ccc2F)(S(=O)(=O)c2ccc(C(F)(F)F)cc2)CC1)C(F)(F)F [Example 62 from U.S. Pat. No. 6,890,956] |  |  |  | 0.99 | 156 | 154 | 6.0 | 5.9 | 101 | 116 | 0.383 | 254 | 55 | 49.5 |  |  |  |  | 0.99 | 
O=S(=O)(N[C@H]1CC[C@@](c2cc(F)ccc2F)(S(=O)(=O)c2ccc(Cl)cc2)CC1)C(F)(F)F [MRK-560] | 0.8 | 1 | 5.2 | 0.72 | 155 | 112 |  | 2.2 | 26 | 67 | 4.7 | 18 | 14 | 1.1 | 9.4 | 12 | 23 | 0.8 | 0.51 | IC50 ([1]; Aβ42, read-out: Tissue autonomous Aβ42, Mouse): 0.4 nM; IC50 ([2]; Aβ42, read-out: Tissue autonomous Aβ42, Rat): 0.4 nM; IC50 ([3]; Aβ42, read-out: Tissue autonomous Aβ42, Dog): 1.3 nM
